Measured values from ChEMBL document CHEMBL1125783, “Novel 1-phenylcycloalkanecarboxylic acid derivatives as potential anticonvulsant agents” (1991).
Where “and” joins values, the source holds several entries; their conditions need not be identical. Equal values may be shown once. Calls of active or inactive are those of the source. The calls are words filed in the database; no cut-off is given here.

tested on: Rattus norvegicus; experiment: Anticonvulsant activity in rats using MES (maximal electroshock) after subcutaneous administration; type: functional; conditions: sc

| SMILES | ED50 |
| --- | --- |
| CCN(CC)CCOCCOCC1(c2ccccc2)CCCC1 | 7 mg/kg and 16 µmol/kg |
| CCN(CC)CCOCCOC(=O)C1(c2ccccc2)CCCC1 [CARBETAPENTANE] | 25 mg/kg and 48 µmol/kg |
| CCN(CC)CCOCCOC(=O)C1(c2ccccc2)CCCCC1 | 93 mg/kg and 173 µmol/kg |
| O=C1NC(=O)C(c2ccccc2)(c2ccccc2)N1 [PHENYTOIN] | 8 mg/kg |
| CCN(CC)CCOCCOCC1(c2ccccc2)CCCCC1 | 37 mg/kg |

tested on: Rattus norvegicus; experiment: Anticonvulsant activity in rats using MES (maximal electroshock) after subcutaneous administration; IA-Inactive up to dose of 50 mg/kg; type: functional, organism-based; design: dose 50 mg/kg; conditions: not given

| SMILES | ED50 |
| --- | --- |
| CCN(CC)CCOCCN(C)CC1(c2ccccc2)CCCC1 | inactive |
| CCN(CC)CCOCCNCC1(c2ccccc2)CCCC1 | inactive |
| CCN(CC)CCOCCNCC1(c2ccccc2)CCCCC1 | inactive |
| CCN(CC)CCOCCNC(=O)C1(c2ccccc2)CCCC1 | inactive |
| CCN(CC)CCOCCNC(=O)C1(c2ccccc2)CCCCC1 | inactive |

tested on: Rattus norvegicus; experiment: Anticonvulsant activity in rats, using MES(maximal electroshock), after subcutaneous administration.; type: functional; conditions: sc

| SMILES | ED50 |
| --- | --- |
| O=C1NC(=O)C(c2ccccc2)(c2ccccc2)N1 [PHENYTOIN] | 30 µmol/kg |
| CCN(CC)CCOCCOCC1(c2ccccc2)CCCCC1 | 86 µmol/kg |
